Assay results: US12060347B2 (BRISTOL-MYERS SQUIBB COMPANY, priority 2016, dated 2024)

The molecules below were run against T1, human PAR4 (Homo sapiens, UniProt Q96RI0) (assay: PAR4 FLIPR assay: antagonism of agonist-peptide-induced calcium mobilization in PAR4-expressing HEK293 cells). Conditions: H-Ala-Phe(4-F)-[…]NH2-induced intracellular calcium mobilization, 11-point curves.
T1 construct: expressed in transfected cells; host or cells: HEK293 PAR4 Clone 1.2A (BMS Arctic ID 383940)
T1 sequence (Q96RI0 18-385): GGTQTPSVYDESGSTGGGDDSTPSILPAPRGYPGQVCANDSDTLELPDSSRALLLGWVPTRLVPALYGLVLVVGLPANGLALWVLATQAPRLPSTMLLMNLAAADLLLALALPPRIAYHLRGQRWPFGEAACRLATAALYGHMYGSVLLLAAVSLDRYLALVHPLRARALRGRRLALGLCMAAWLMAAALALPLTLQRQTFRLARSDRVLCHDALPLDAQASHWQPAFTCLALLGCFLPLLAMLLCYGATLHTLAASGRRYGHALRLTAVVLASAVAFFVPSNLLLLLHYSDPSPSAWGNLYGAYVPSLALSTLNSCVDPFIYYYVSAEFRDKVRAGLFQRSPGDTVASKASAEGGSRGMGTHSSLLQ
Type: cell-based

Row | Structure (SMILES) | IC50
1 | COc1cccc2oc(-c3cc(C)cc4nc(OC(F)F)cnc34)cc12 [Example 42, 2-(difluoromethoxy)-5-(4-methoxybenzofuran-2-yl)-7-methylquinoxaline] | 5.2 nM
2 | COc1cnc2c(-c3cc4c(OCc5ccccc5)cccc4o3)cc(C)cc2n1 [Example 43, 5-(4-(benzyloxy)benzofuran-2-yl)-2-methoxy-7-methylquinoxaline] | 170 nM
3 | Cc1cc(-c2cc3cc(OCc4ccccc4)ccc3o2)c2ncc(OC(F)F)nc2c1 [Example 44, 5-(5-(benzyloxy)benzofuran-2-yl)-2-(difluoromethoxy)-7-methylquinoxaline] | 220 nM
4 | Cc1cc(-c2cn3ccccc3n2)c2ncc(OC(F)F)nc2c1 [Example 45, 2-(difluoromethoxy)-5-(imidazo[1,2-a]pyridin-2-yl)-7-methylquinoxaline] | 99 nM
5 | COC(=O)NCCOc1ccc2oc(-c3cc(C)cc4nc(OC(F)F)cnc34)cc2c1 [Example 46, methyl 2-(2-(2-(difluoromethoxy)-7-methylquinoxalin-5-yl)benzofuran-5-yloxy)ethylcarbamate] | 17 nM
6 | Cc1cc(-c2nc3ccccc3[nH]2)c2ncc(OC(F)F)nc2c1 [Example 47, 5-(1H-benzo[d]imidazol-2-yl)-2-(difluoromethoxy)-7-methylquinoxaline] | 34 nM
7 | COc1ccc2nc(-c3cc(C)cc4nc(OC(F)F)cnc34)sc2c1 [Example 48, 2-(2-(difluoromethoxy)-7-methylquinoxalin-5-yl)-6-methoxybenzo[d]thiazole] | 2.1 nM
8 | Cc1cc(-c2cc3cc(OCC(=O)OC(C)(C)C)ccc3o2)c2ncc(OC(F)F)nc2c1 [Example 49, tert-butyl 2-(2-(2-(difluoromethoxy)-7-methylquinoxalin-5-yl)benzofuran-5-yloxy) acetate] | 9.7 nM
9 | COc1ccc2[nH]c(-c3cc(C)cc4nc(OC(F)F)cnc34)nc2c1 [Example 50, 2-(difluoromethoxy)-5-(5-methoxy-1H-benzo[d]imidazol-2-yl)-7-methylquinoxaline] | 92 nM
10 | COc1cccc2sc(-c3cc(C)cc4nc(OC(F)F)cnc34)nc12 [Example 51, 2-(2-(difluoromethoxy)-7-methylquinoxalin-5-yl)-4-methoxybenzo[d]thiazole] | 180 nM
11 | Cc1cc(-c2nc3c(C)cccc3s2)c2ncc(OC(F)F)nc2c1 [Example 52, 2-(2-(difluoromethoxy)-7-methylquinoxalin-5-yl)-4-methylbenzo[d]thiazole] | 4.7 nM
12 | Cc1cc(-c2nc3c(F)cccc3s2)c2ncc(OC(F)F)nc2c1 [Example 53, 2-(2-(difluoromethoxy)-7-methylquinoxalin-5-yl)-4-fluorobenzo[d]thiazole] | 9.8 nM
13 | CNCCOc1ccc2oc(-c3cc(C)cc4nc(OC(F)F)cnc34)cc2c1 [Example 54, 2-(2-(2-(difluoromethoxy)-7-methylquinoxalin-5-yl)benzofuran-5-yloxy)-N-methylethanamine] | 94 nM
14 | COc1cc(OC)c2nc(-c3cc(C)cc4nc(OC(F)F)cnc34)sc2c1 [Example 55, 2-(2-(difluoromethoxy)-7-methylquinoxalin-5-yl)-4,6-dimethoxybenzo[d]thiazole] | 14 nM
15 | COc1ccc2oc(-c3cc(C)cc4nc(OC)cnc34)cc2c1 [Example 56, 2-methoxy-5-(5-methoxybenzofuran-2-yl)-7-methylquinoxaline] | 4.7 nM
16 | COc1cccc2nc(-c3cc(C)cc4nc(OC(F)F)cnc34)sc12 [Example 58, 2-(2-(difluoromethoxy)-7-methylquinoxalin-5-yl)-7-methoxybenzo[d]thiazole] | 3 nM
17 | Cc1cc(-c2nc3cc(F)ccc3s2)c2ncc(OC(F)F)nc2c1 [Example 60, 2-(2-(difluoromethoxy)-7-methylquinoxalin-5-yl)-5-fluorobenzo[d]thiazole] | 19 nM
18 | COC(=O)c1cccc2nc(-c3cc(C)cc4nc(OC(F)F)cnc34)sc12 [Example 61, Methyl 2-(2-(difluoromethoxy)-7-methylquinoxalin-5-yl)benzo[d]thiazole-7-carboxylate] | 43 nM
19 | COC(=O)N1CCc2nc(-c3cc(C)cc4nc(OC(F)F)cnc34)sc2C1 [Example 62, methyl 2-(2-(difluoromethoxy)-7-methylquinoxalin-5-yl)-6,7-dihydrothiazolo[5,4-c]pyridine-5(4H)-carboxylate] | 100 nM

Row | Structure (SMILES) | IC50
20 | Cc1cc(-c2nc3ccc(OCCNS(=O)(=O)c4ccccc4)cc3s2)c2ncc(OC(F)F)nc2c1 [Example 63, N-(2-(2-(2-(difluoromethoxy)-7-methylquinoxalin-5-yl)benzo[d]thiazol-6-yloxy)ethyl) benzenesulfonamide] | 2.9 nM
21 | Cc1cc(-c2nc3cccc(CO)c3s2)c2ncc(OC(F)F)nc2c1 [Example 64, (2-(2-(difluoromethoxy)-7-methylquinoxalin-5-yl)benzo[d]thiazol-7-yl)methanol] | 7.4 nM
22 | COCc1cccc2nc(-c3cc(C)cc4nc(OC(F)F)cnc34)sc12 [Example 65, 2-(2-(difluoromethoxy)-7-methylquinoxalin-5-yl)-7-(methoxymethyl)benzo[d]thiazole] | 31 nM
23 | Cc1cc(-c2nc3cccc(CNS(=O)(=O)c4ccccc4)c3s2)c2ncc(OC(F)F)nc2c1 [Example 66, N-((2-(2-(difluoromethoxy)-7-methylquinoxalin-5-yl)benzo[d]thiazol-7-yl)methyl)benzenesulfonamide] | 28 nM
24 | Cc1cc(-c2nc3c(F)cc(OCCNS(=O)(=O)c4ccccc4)cc3s2)c2ncc(OC(F)F)nc2c1 [Example 67, N-(2-(2-(2-(difluoromethoxy)-7-methylquinoxalin-5-yl)-4-fluorobenzo[d]thiazol-6-yloxy)ethyl)benzenesulfonamide] | 2.9 nM
25 | Cc1ccc2sc(-c3cc(C)cc4nc(OC(F)F)cnc34)nc2c1 [Example 68, 2-(2-(difluoromethoxy)-7-methylquinoxalin-5-yl)-5-methylbenzo[d]thiazole] | 120 nM
26 | COC(=O)NCCOc1cccc2nc(-c3cc(C)cc4nc(OC(F)F)cnc34)sc12 [Example 69, Methyl 2-(2-(2-(difluoromethoxy)-7-methylquinoxalin-5-yl)benzo[d]thiazol-7-yloxy)ethylcarbamate] | 36 nM
27 | COC(=O)NCCOc1ccc(C)c2nc(-c3cc(C)cc4nc(OC(F)F)cnc34)sc12 [Example 70, Methyl 2-(2-(2-(difluoromethoxy)-7-methylquinoxalin-5-yl)-4-methylbenzo[d]thiazol-7-yloxy)ethylcarbamate] | 34 nM
28 | Cc1cc(-c2nc3ccc(OCc4cscn4)cc3s2)c2ncc(OC(F)F)nc2c1 [Example 71, 2-(2-(difluoromethoxy)-7-methylquinoxalin-5-yl)-6-(thiazol-4-ylmethoxy) benzo[d]thiazole] | 160 nM
29 | COc1cnc2c(-c3nc4ccc(OCCNS(=O)(=O)c5ccccc5)cc4s3)cc(C)cc2n1 [Example 72, N-(2-(2-(2-methoxy-7-methylquinoxalin-5-yl)benzo[d]thiazol-6-yloxy)ethyl)benzenesulfonamide] | 1 nM
30 | Cc1cc(-c2nc3c(C)cc(OCCNS(=O)(=O)c4ccccc4)cc3s2)c2ncc(OC(F)F)nc2c1 [Example 73, N-(2-(2-(2-(difluoromethoxy)-7-methylquinoxalin-5-yl)-4-methylbenzo[d]thiazol-6-yloxy)ethyl)benzenesulfonamide] | 2.3 nM
31 | Cc1cc(-c2nc3cccc(OCCO)c3s2)c2ncc(OC(F)F)nc2c1 [Example 74, 2-(2-(2-(difluoromethoxy)-7-methylquinoxalin-5-yl)benzo[d]thiazol-7-yloxy)ethanol] | 9.3 nM
32 | COCCOc1cccc2nc(-c3cc(C)cc4nc(OC(F)F)cnc34)sc12 [Example 75, 2-(2-(difluoromethoxy)-7-methylquinoxalin-5-yl)-7-(2-methoxyethoxy)benzo[d]thiazole] | 14 nM
33 | Cc1cc(-c2nc3cccc(NC(=O)OCc4ccccc4)c3s2)c2ncc(OC(F)F)nc2c1 [Example 76, benzyl 2-(2-(difluoromethoxy)-7-methylquinoxalin-5-yl)benzo[d]thiazol-7-ylcarbamate] | 2.1 nM
34 | COCCOc1ccc2nc(-c3cc(C)cc4nc(OC)cnc34)sc2c1 [Example 77, 2-(2-methoxy-7-methylquinoxalin-5-yl)-6-(2-methoxyethoxy)benzo[d]thiazole] | 130 nM
35 | COCCOc1cccc2nc(-c3cc(C)cc4nc(OC)cnc34)sc12 [Example 78, 2-(2-methoxy-7-methylquinoxalin-5-yl)-7-(2-methoxyethoxy)benzo[d]thiazole] | 39 nM
36 | COC(=O)Nc1cccc2nc(-c3cc(C)cc4nc(OC(F)F)cnc34)sc12 [Example 80, Methyl 2-(2-(difluoromethoxy)-7-methylquinoxalin-5-yl)benzo[d]thiazol-7-ylcarbamate] | 21 nM
37 | Cc1cc(-c2nc3c(C)cc(OCCNS(=O)(=O)c4ccc(F)cc4)cc3s2)c2ncc(OC(F)F)nc2c1 [Example 81, N-(2-(2-(2-(difluoromethoxy)-7-methylquinoxalin-5-yl)-4-methylbenzo[d]thiazol-6-yloxy)ethyl)-4-fluorobenzenesulfonamide] | 1.5 nM
38 | Cc1cc(-c2nc3cccc(OCC(=O)Nc4ccccc4)c3s2)c2ncc(OC(F)F)nc2c1 [Example 82, 2-(2-(2-(difluoromethoxy)-7-methylquinoxalin-5-yl)benzo[d]thiazol-7-yloxy)-N-phenylacetamide] | 280 nM
